This is an account of results in US7538084B2, “Cyclosporins” (AMR Technology, Inc., priority 2003, dated 2009).

One assay has as its system murine splenocytes. In words: one-way mixed lymphocyte reaction (MLR) assay, murine. It is filed as cell-based, mouse. How it is done: (§1) The MLR assay was designed to measure ^3H-thymidine uptake by human lymphocytes or murine splenocytes that are undergoing cell proliferation in an immune response to allogeneic stimulation. The murine system uses the H2 disparate inbred mouse strains: Balb/c (H2^d) and C57B1/6 (H2^b).
Initial screens were done at a fixed value of 100 ng/ml test compound.

For a further assay, the system named is human T-lymphocytes. As to conditions: mixed lymphocyte reaction assay in human T-lymphocytes.
Excerpt: as §1

As to “Cyclosporin A Methyl Vinyl Ketone (IIIa) [Compound IIIa]”, the “IC50 (concentration inhibiting proliferation by 50% relative to control)” value with murine splenocytes (3H-thymidine uptake, Balb/c responder splenocytes, γ-irradiated C57B1/6 stimulators, 7 point concentration-response curves) was determined as 0.31 µg/mL. The immunosuppressive activity result with murine splenocytes (mixed lymphocyte reaction assay in murine splenocytes) and with human T-lymphocytes was “significant immunosuppressive activity” throughout.
